Where a chain is given by its changes, count along the chain named. Read-outs that look alike come from different tables or passages of the source. Square brackets hold non-standard residues; d marks the D form. Peptide text beside a SMILES is read from it. * marks the point of attachment. Dolaproine = CO[C@@H]([C@@H]1CCCN1)[C@@H](C)C(=O)O; Dil = CC[C@H](C)[C@H](NC)[C@@H](CC(=O)O)OC; X1 = C[C@@H](N*)[C@@H](O)c1ccccc1; NMeV = CN[C@H](C(=O)O)C(C)C
Tests used:
MES-SA cells = test: Free drug cell killing on parental MES-SA cells; format: cell-based; settings: MEA-SA (parental) cells, No GF120918
Description: (§1) To evaluate if free drug (I) is specifically a substrate of P-glycoprotein (PgP), which is responsible for cisplatin-resistance in some of the ovarian cancer cell lines (Stordal et al. 2012. PLoS One 7(7)), the free drug cell killing activities were investigated on PgP over-expressing MES-SA/MX2 cell line and the parental MES-SA cells. The cell killing activity of free drug (I), free drug (II) and a control free drug (MMAE, designated “III”) on the PgP-overexpressing MES-SA/MX2 cells were reduced by different levels compared to their activity on parental MES-SA cells. The MES-SA/MX2 cells were also treated with PgP inhibitor GF120918 (5 μM) to further investigate if the observed cell killing reduction is contributed by the presence of PgP on the cell surface.

[1] = system: MES-SA/MX2 cells (PgP over-expressing); test: Free drug cell killing on PgP over-expressing MES-SA/MX2 cells with or without PgP inhibitor GF120918; format: cell-based; settings: for change in cell killing EC50 in the presence and absence of PgP inhibitor GF120918: GF120918 5 μM
Description: as §1

MC38-hFolRα tumors = test: MC38-hFOLR1 tumor model, combination with Avelumab; format: in vivo; settings: ADC Molecule 4 10 or 15 mg/kg once IV; Avelumab q3dx3 intraperitoneally
[2] = Body weight of rats given free drugs; format: in vivo, rat; settings: free drug (I) 0.4 and 1 mg/kg; free drug (II) 0.4 mg/kg; IV bolus
Procedure: To assess the pharmacokinetic profile of free drug (I), female Sprague-Dawley rats (mean body weight 250 g) were given either a 0.4 mg/kg or 1 mg/kg dose by IV bolus administration (N=three animal per dose level) via an indwelling jugular vein catheter. Blood samples were collected at […], 1, 2, 8, 24, 32, 48, and 72 hour post-dose. Levels of free drug (I) and (II) were measured by LC-MS/MS and non-compartmental pharmacokinetic analysis was conducted using Phoenix WinNonlin Version 6.4 (Pharsight Corporation). The PK of free drug (I) could not be estimated due to the fact that concentrations of (I) increased from 2 to 8 hours and were undetectable thereafter.

cell line tested = test: Free drug in vitro cytotoxicity, various cell lines; format: cell-based; settings: for cytotoxic activity of released free drugs: in words
P-glycoprotein (PgP) = test: Free drug cell killing on PgP over-expressing MES-SA/MX2 cells with or without PgP inhibitor GF120918; format: cell-based; settings: human, MES-SA/MX2 cells (PgP over-expressing)
Description: as §1

A549 cells = test: In vitro cell killing (ADCs, free drugs), FolRα-negative A549 cells; format: cell-based; settings: for Span: A549 cells, Table 26, NK = No Killing; for EC50: Homo sapiens, A549
Description: Cytotoxic activities of the two ADC molecules were compared in the presence of excess un-conjugated “naked” antibody as competitior, on cells that were positive FolRα expression (Igrov1 and OVCAR3) and on cells that were negative for FolRα expression (A549).

[3] = Pharmacokinetics of free drugs in Sprague-Dawley rats; format: in vivo, rat; settings: for AUC(0-inf) / C0 / Cmax / clearance / AUC(0-t) / half-life / Vd: rat, blood, female Sprague-Dawley rats; for AUC(0-t): read-out: AUC0-last ± SE; for half-life: read-out: Terminal t1/2 (converted); for Vd: read-out: VSS
Procedure: Blood samples were collected at […], 1, 2, 8, 24, 32, 48, and 72 hour post-dose. Levels of free drug (I) and (II) were measured by LC-MS/MS and non-compartmental pharmacokinetic analysis was conducted using Phoenix WinNonlin Version 6.4 (Pharsight Corporation). The PK of free drug (I) could not be estimated due to the fact that concentrations of (I) increased from 2 to 8 hours and were undetectable thereafter.

Igrov1 cells = test: In vitro cell killing (ADCs, free drugs), Igrov1 cells; format: cell-based; settings: for EC50: Homo sapiens, IGROV-1; for Span: Igrov1 cells, Table 26
Procedure: The candidate antibody-drug conjugates were tested in cell killing on FolRα-expressing cells, including KB, Igrov1, HeLa and JEG3.

[4] = system: FOLR1-positive Igrov1 cells; test: Secondary antibody cell killing assay, Igrov1 cells; format: cell-based; settings: Table 9; for EC50: read-out: Igrov 2° Antibody Cell Killing, Nb-SC239 EC50
Description: FOLR1-positive KB cells were obtained from ATCC, and FOLR1-positive Igrov1 cells were obtained from NIH. The cells were maintained in Ham's F-12: high glucose DMEM (50:50) (Corning, Cellgro-Mediatech) supplemented with 10% heat-inactivated fetal bovine serum (Corning, Cellgro-Mediatech, Manassas, Va.), 1% Penicillin/Streptomycin (Corning, Cellgro-Mediatech, Manassas, Va.) and 2 mmol/L-glutamax (Thermo Fisher Scientific, Waltham, Mass.). Adherent cells were washed twice with calcium and magnesium-free Hanks Balanced Salt Solution (HBSS), harvested with HYQ® TASE™ (Hyclone; Thermo Fisher Scientific, Waltham, Mass.) and counted by the Vi-CELL Cell Viability Analyzers (Beckman Coulter, Indianapolis, Ind.). A total of 625 cells were seeded in each well of a 384-well flat bottom white polystyrene plate. Lead antibodies were formulated at 4-fold starting concentration in the cell culture medium and filtered through MultiScreenHTS 96-Well Filter Plates (Millipore; Billerica, Mass.). […] Assay plates were cultured at 37° C. in a CO2 incubator for 120 hrs before assay. For cell viability measurement, 30 μL of Cell Titer-Glo® reagent (Promega Corp. Madison, Wis.) was added into each well, and plates were processed as per product instructions. Relative luminescence was measured on an ENVISION® plate reader (Perkin-Elmer; Waltham, Mass.). Relative luminescence readings were converted to percent viability using untreated cells as controls. Data was fitted with non-linear regression analysis, using a log(inhibitor) vs. response-variable slope, 4 parameter fit with GraphPad Prism (GraphPad v 5.0, Software; San Diego, Calif.). Data was expressed as relative cell viability (ATP content) % vs. dose of antibody.

human FOLR1-HIS = biological target: T1, human FOLR1-HIS (Homo sapiens, UniProt P15328); test: Biacore kinetics (surface plasmon resonance); format: binding; settings: humanized 6D1 (2060) antibodies, Table 9
T1 construct: HIS
Procedure: Anti-Fc polyclonal antibodies were immobilized onto a CM5 chip (GE Life Sciences) using amine coupling chemistry (from Amine Coupling Kit, GE Life Sciences). The immobilization steps were carried out at a flow rate of 25 μL/min in 1×HBS-EP+ buffer (GE Life Sciences; 10× Stock diluted before use). The sensor surfaces were activated for 7 min with a mixture of N-hydroxysuccinimide (NHS, 0.05 M) and 1-ethyl-3-(3-dimethylaminopropyl)-carbodiimide (EDC, 0.2 M). The anti-Fc polyclonal antibodies were injected over all 4 flow cells at a concentration of […]/mL in 10 mM sodium acetate, pH 4.5, for 7 min. Ethanolamine (1 M, pH 8.5) was injected for 7 min to block any remaining activated groups. An average of 12,000 response units (RU) of capture antibody was immobilized on each flow cell.
Off-rate and kinetic binding experiments were performed at 25° C. using 1×HBS-EP+ buffer. Test and control antibodies were injected over the anti-Fc surface at concentrations of 5-10 μg/mL for 12 seconds at a flow rate of 10 μL/min on flow cells 2, 3 and 4, followed by a buffer wash for 30 seconds at the same flow rate. Kinetic characterization of antibody samples was carried out with a single concentration of antigen (for off-rate ranking) or a 1:2 dilution series of antigen (for kinetic characterization) and 1 injection of 0 nM antigen. […] Between each ligand capture and analyte binding cycle, regeneration was carried out using 2 injections of 10 mM glycine pH 2.0 for 30 seconds at 30 μL/min, followed by a 30 second buffer wash step.
The data were fit with the Biacore T200 Evaluation software, using a 1:1 Langmuir binding model. KD (affinity, nM) was determined as a ratio of the kinetic rate constants calculated from the fits of the association and dissociation phases.

[5] = MEA-SA/MX2 cells (PgP over-expressing), No GF120918
[6] = MEA-SA/MX2 cells, with PgP inhibitor GF120918 (5 μM)
[7] = with GF120918 (5 μM), MEA-SA/MX2 cells, with PgP inhibitor GF120918 (5 μM)

T1 sequence (P15328 25-234): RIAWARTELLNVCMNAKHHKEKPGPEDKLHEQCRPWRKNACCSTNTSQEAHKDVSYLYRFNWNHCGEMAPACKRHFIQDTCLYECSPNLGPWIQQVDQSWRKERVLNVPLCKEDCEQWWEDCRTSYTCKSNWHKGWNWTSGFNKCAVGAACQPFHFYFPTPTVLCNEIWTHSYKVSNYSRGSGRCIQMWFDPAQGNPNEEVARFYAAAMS

CC[C@H](C)[C@@H]([C@@H](CC(=O)N1CCC[C@H]1[C@H](OC)[C@@H](C)C(=O)N[C@H](C)[C@@H](O)c1ccccc1)OC)N(C)C(=O)[C@@H](NC(=O)[C@@H](NC)C(C)C)C(C)C [free drug (III), MMAE] (H-[NMeV]V[Dil][Dolaproine]-X1)
EC50 (MES-SA cells): 0.75 nM | Span (MES-SA cells): 100% | change in cell killing EC50 in the presence and absence of PgP inhibitor GF120918 [1]: 111 fold | EC50 [1, 5]: 111 nM | Span [1, 5]: 100% | EC50 [1, 6]: 1 nM | Span [1, 6]: 99%

Avelumab
initial tumor response (MC38-hFolRα tumors): tumor stasis until approximately day 7

COc1cc2cc(c1Cl)N(C)C(=O)C[C@H](OC(=O)[C@H](C)N(C)C(=O)CCC(C)(C)S)[C@]1(C)O[C@H]1[C@H](C)[C@@H]1C[C@@](O)(NC(=O)O1)[C@H](OC)/C=C/C=C(/C)C2 [free drug (II)]
body weight of the animals [2]: progressive body weight loss | EC50 (MES-SA cells; Homo sapiens, MES-SA): 1.9 nM | Span (MES-SA cells): 100% | cytotoxic activity of released free drugs (cell line tested): comparable cytotoxic activity | EC50 (P-glycoprotein (PgP); [7]): 1.7 nM | EC50 (P-glycoprotein (PgP); [5]): 28 nM | change in cell killing EC50 in the presence and absence of PgP inhibitor GF120918 [1]: 17 fold | Span [1, 5]: 100% | Span [1, 6]: 98% | Span (A549 cells): 81% | EC50 (A549 cells): 7.7 nM | AUC(0-inf) ([3]; IV bolus, dose level 0.1 mg/kg): 129 ng·h/mL | C0 ([3]; IV bolus, dose level 0.1 mg/kg): 10.7 ng/mL | Cmax ([3]; IV bolus, dose level 0.1 mg/kg): 9.31 ± 2.19 ng/mL | clearance ([3]; IV bolus, dose level 0.1 mg/kg): 12.9 mL/min/kg | AUC(0-t) ([3]; IV bolus, dose level 0.1 mg/kg): 96.9 ± 11 ng·h/mL | half-life ([3]; IV bolus, dose level 0.1 mg/kg): 22.4 h | Vd ([3]; IV bolus, dose level 0.1 mg/kg): 15.8 L/kg | AUC(0-inf) ([3]; IV bolus, dose level 0.4 mg/kg): 242 ng·h/mL | C0 ([3]; IV bolus, dose level 0.4 mg/kg): 62.5 ng/mL | Cmax ([3]; IV bolus, dose level 0.4 mg/kg): 53.3 ± 19 ng/mL | clearance ([3]; IV bolus, dose level 0.4 mg/kg): 27.7 mL/min/kg | AUC(0-t) ([3]; IV bolus, dose level 0.4 mg/kg): 211 ± 70 ng·h/mL | half-life ([3]; IV bolus, dose level 0.4 mg/kg): 44.3 h | Vd ([3]; IV bolus, dose level 0.4 mg/kg): 44.1 L/kg | EC50 (Igrov1 cells): 4.9 nM | Span (Igrov1 cells): 90%

CN[C@H](C(=O)N[C@H](C(=O)N(C)[C@H](/C=C(\C)C(=O)O)C(C)C)C(C)(C)C)C(C)(C)c1cccc(N)c1 [free drug (I)]
body weight of the animals [2]: did not have an effect on the body weight | EC50 (MES-SA cells; Homo sapiens, MES-SA): 6 nM | Span (MES-SA cells): 100% | EC50 (cell line tested; depending on the cell line tested, read-out: cytotoxic activity in vitro EC50): 0.5 to 20 nM | cytotoxic activity of released free drugs (cell line tested): comparable cytotoxic activity | EC50 (P-glycoprotein (PgP); [7]): 6.4 nM | EC50 (P-glycoprotein (PgP); [5]): 50 nM | change in cell killing EC50 in the presence and absence of PgP inhibitor GF120918 [1]: 8 fold | Span [1, 5]: 100% | Span [1, 6]: 99% | Span (A549 cells): 81% | EC50 (A549 cells): 11 nM | plasma level of free drug after dosing ([3]; 0.4 or 1 mg/kg IV bolus, data not shown): undetectable at 24 hours post dose | clearance relative to the other free drug ([3]; IV bolus): more rapid than that of free drug (II) | PK of free drug (I) in rat vs. free drug (II) ([3]; Table 28): Free drug (I) has faster clearance | C0 ([3]; IV bolus, dose level 0.1 mg/kg): 6.81 ng/mL | Cmax ([3]; IV bolus, dose level 0.1 mg/kg): 5.82 ± 0.69 ng/mL | AUC(0-t) ([3]; IV bolus, dose level 0.1 mg/kg): 11 ± 2.1 ng·h/mL | C0 ([3]; IV bolus, dose level 0.4 mg/kg): 15.5 ng/mL | Cmax ([3]; IV bolus, dose level 0.4 mg/kg): 12.8 ± 2.1 ng/mL | AUC(0-t) ([3]; IV bolus, dose level 0.4 mg/kg): 23.9 ± 2.6 ng·h/mL | EC50 (Igrov1 cells): 2.4 nM | Span (Igrov1 cells): 92%

B1: SRP2060-E10: affinity-matured humanized 6D1; VH SEQ ID NO 363; VL H6D1-LC4 SEQ ID NO 368 (antibody, V domains shown)
VH: EVQLLESGGGLVQPGGSLRLSCAFSGFSLSTFGMGVGWVRQAPGKGLEWVSHIWWDDDKYYHPALKGRFTISKDNSKNTVYLQMNSLRAEDTAVYYCGRNHFPHYYGSSHWYFNVWGQGTTVTVSS
VL: EIVMTQSPATLSLSPGERATLSCKASQDINSYLSWYQQKPGQAPRLLIYRANRLVDGIPARFSGSGSGTDYTLTISSLEPEDFAVYYCLQYDEFPYTFGGGTKVEIK
modifications: Synthetic SRP2060-E10, VH; Synthetic H6D1-LC4, VL
Igrov 2° Antibody Cell Killing, Nb-SC239 span [4]: 68% | EC50 [4]: 0.061 nM | Biacore kinetics ka (human FOLR1-HIS): 582000 M⁻¹ s⁻¹ | Biacore kinetics kd (human FOLR1-HIS): 0.0012 s⁻¹

B2: SRP2060-B01 (antibody, V domains shown)
VH: B1 VH with F24L, P43T, Y81H
VL: DIQMTQSPSTLSASVGDRVTITCKASQDINSYLSWYQQKPGKAPKLLIYRANRLVDGVPSRFSGSGSGTEFTLTISSLQPDDFATYYCLQYDEFPYTFGGGTKVEIK
Igrov 2° Antibody Cell Killing, Nb-SC239 span [4]: 76% | EC50 [4]: 0.045 nM | Biacore kinetics ka (human FOLR1-HIS): 561000 M⁻¹ s⁻¹ | Biacore kinetics kd (human FOLR1-HIS): 0.00147 s⁻¹

B3: SRP2060-E05: affinity-matured humanized 6D1; VH SEQ ID NO 364; VL H6D1-LC4 SEQ ID NO 368 (antibody, V domains shown)
VH: B1 VH with I71V
VL: B1 VL
modifications: Synthetic SRP2060-E05, VH; Synthetic H6D1-LC4, VL
Igrov 2° Antibody Cell Killing, Nb-SC239 span [4]: 71% | EC50 [4]: 0.22 nM | Biacore kinetics ka (human FOLR1-HIS): 541000 M⁻¹ s⁻¹ | Biacore kinetics kd (human FOLR1-HIS): 0.00158 s⁻¹

B4: SRP2060-A06 (antibody, V domains shown)
VH: B1 VH with S51G, H62Y, N114D
VL: B2 VL
Igrov 2° Antibody Cell Killing, Nb-SC239 span [4]: 66% | EC50 [4]: 0.013 nM | Biacore kinetics ka (human FOLR1-HIS): 547000 M⁻¹ s⁻¹ | Biacore kinetics kd (human FOLR1-HIS): 0.00729 s⁻¹

— US10596270B2, “Anti-folate receptor antibody conjugates, compositions comprising anti-folate receptor antibody conjugates, and methods of making and using anti-folate receptor antibody conjugates” (Sutro Biopharma, Inc., priority 2017, dated 2020)
